Laboratory results published in ChEMBL document CHEMBL1201862, “PubChem BioAssay data set” (2004).
Active and inactive are the calls of the source.

Experiments:
Prothrombin = Prothrombin (Homo sapiens, UniProt P00734); assay: Thrombin 1536 HTS Dose Response Confirmation. [Related pubchem assays: 1046 (Thrombin 1536 HTS; hits were confirmed in this assay)]; format: functional
[1] = biological target: T1, Zinc finger protein mex-5 (Caenorhabditis elegans, UniProt Q9XUB2); assay: potency of MEX-5 RNA-binding blockers – biochemical, C. elegans, fluorescence polarization, dose response (AID 1960)
T1 sequence (Q9XUB2 whole entry): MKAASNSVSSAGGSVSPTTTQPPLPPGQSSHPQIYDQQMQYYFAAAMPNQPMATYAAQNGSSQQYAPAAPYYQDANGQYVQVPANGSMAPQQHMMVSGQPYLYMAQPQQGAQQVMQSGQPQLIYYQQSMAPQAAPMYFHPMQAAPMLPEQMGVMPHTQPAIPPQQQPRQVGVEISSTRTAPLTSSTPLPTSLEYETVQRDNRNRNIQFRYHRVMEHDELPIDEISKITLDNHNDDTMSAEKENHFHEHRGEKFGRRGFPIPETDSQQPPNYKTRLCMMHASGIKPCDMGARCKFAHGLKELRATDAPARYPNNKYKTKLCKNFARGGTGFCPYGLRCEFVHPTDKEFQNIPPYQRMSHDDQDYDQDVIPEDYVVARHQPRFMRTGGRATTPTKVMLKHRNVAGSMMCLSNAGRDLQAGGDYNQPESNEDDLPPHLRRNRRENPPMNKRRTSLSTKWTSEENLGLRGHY

[2] = Trypanosoma cruzi growth suppression in host cells – NIH3T3 host cells, beta-gal luminescence, confirmation (AID 2044); format: functional, cell-based;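 note: intracellular parasites grown in NIH/3T3 mouse fibroblasts as host cells; luminescent beta-galactosidase reporter signal from transgenic T. cruzi replicating inside host cells; inhibitors lower the luminescence signal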
[3] = NIH3T3 cell viability loss – ATP luminescence, mouse fibroblasts, counter-screen, dose response (AID 2010); format: functional, cell-based;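 note: cells exposed to compound for about 90 hours before reading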
[4] = viability of PTEN-deleted HCT116 cells – cell-based, HCT116 PTEN knockout, dose response (AID 1047); format: functional;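 note: HCT116 colon tumor cells with PTEN knocked out; cells exposed to compound for 60 hours before readout; potency for loss of cell viability measured by luminescence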
Streptococcus = assay: GAS UMAA2166 growth inhibition – luminescence, BacTiterGlo, counter-screen for streptokinase expression inhibitor project, dose response (AID 1915); format: functional, organism-based;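 note: potency for reduction of bacterial viability or growth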
[5] = tested on: Streptococcus sp. 'group A'; assay: Streptococcus pyogenes SK(-)GAS viability under kanamycin – luminescence, BacTiterGlo, confirmation, counter-screen for streptokinase expression inhibitor project, dose response (AID 1900); format: functional, organism-based
[6] = biological target: T2, RNA-binding protein pos-1 (Caenorhabditis elegans, UniProt G5EF15); assay: disruptors of C. elegans POS-1 RNA interaction – biochemical, fluorescence polarization, dose response (AID 1964);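 note: purified POS-1 fused to maltose binding protein made in E. coli; potency of compounds blocking POS-1 binding to fluorescent RNA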
T2 sequence (G5EF15 whole entry): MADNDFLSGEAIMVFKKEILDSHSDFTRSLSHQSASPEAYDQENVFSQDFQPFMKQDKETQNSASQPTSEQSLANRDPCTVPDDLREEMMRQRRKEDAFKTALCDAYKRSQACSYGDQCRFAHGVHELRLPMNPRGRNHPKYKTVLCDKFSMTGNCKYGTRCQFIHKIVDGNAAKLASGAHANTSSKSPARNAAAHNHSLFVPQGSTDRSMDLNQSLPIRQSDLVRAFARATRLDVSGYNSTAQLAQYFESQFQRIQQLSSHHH

[7] = viability of HCT116 lacking mutant beta-catenin – cell-based, human colon tumor, dose response (AID 1045); format: functional;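 note: HCT116 colon tumor cells with beta catenin knocked out; cells exposed to compound for 60 hours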
HeLa = assay: ATP-based viability loss in HeLa cells – cell-based, CellTiter-Glo luminescence, cherry-pick samples, cytotoxicity control for MITF activator project, dose response (AID 540259); format: functional; conditions: Homo sapiens
[8] = biological target: T3, Tyrosine-protein phosphatase non-receptor type 7 (Homo sapiens, UniProt P35236); assay: HePTP tyrosine phosphatase activity blockers – biochemical, absorbance, leukemia target, primary screen (AID 521); format: functional
T3 sequence (P35236 whole entry): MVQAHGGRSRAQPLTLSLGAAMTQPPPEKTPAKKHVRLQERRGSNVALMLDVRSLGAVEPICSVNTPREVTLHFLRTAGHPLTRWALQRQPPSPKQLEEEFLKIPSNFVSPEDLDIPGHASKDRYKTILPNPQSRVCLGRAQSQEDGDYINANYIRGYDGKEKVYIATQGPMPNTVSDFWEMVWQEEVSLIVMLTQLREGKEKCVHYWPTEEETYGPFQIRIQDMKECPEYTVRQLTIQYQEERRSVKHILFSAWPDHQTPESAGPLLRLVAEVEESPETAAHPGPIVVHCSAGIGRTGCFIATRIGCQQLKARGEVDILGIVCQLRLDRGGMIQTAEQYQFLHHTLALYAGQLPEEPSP

Vero [9] = assay: cells; format: functional, cell-based; conditions: Chlorocebus sabaeus
Vero [10] = assay: cells; format: functional; conditions: Chlorocebus sabaeus
cells = format: functional
[11] = luciferase reporter signal suppression in cells – H4 neuroglioma cells, luminescence, dose response (AID 1990); format: functional, cell-based
[12] = Luminescence Cell-Based Dose Response HTS to Identify Inhibitors of 5'UTR Stem-Loop Driven Prion Protein mRNA Translation in H4 Neuroglioblastoma Cells. [Related pubchem assays: 1827 (Project Summary), 1813 (Primary HTS)]; format: functional
Paired box protein Pax-8 = Paired box protein Pax-8 (Homo sapiens, UniProt Q06710); assay: PAX8 transcriptional activity inhibition in RMG-I – RMG-I cells, luciferase, cherry-pick, dose response (AID 687027); format: functional, cell-based;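 note: luciferase reporter driven by Pax8 target thyroperoxidase promoter measured by SteadyGlo luminescence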
[13] = alpha-synuclein stem-loop luciferase translation blockers – H4 neuroglioma cells, luminescence, confirmation (AID 1988); format: functional, cell-based
Cytochrome P450 2C9 = Cytochrome P450 2C9 (Homo sapiens, UniProt P11712)
[14] = biological target: Eukaryotic translation initiation factor 4E (Mus musculus, UniProt P63073); assay: blockers of eIF4G binding by eIF4E – biochemical, TR-FRET, dose response (AID 855); format: functional;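 note: potency for disrupting eIF4E binding to eIF4GI seen as loss of FRET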
Eukaryotic translation initiation factor 4E, sequence (P63073 whole entry): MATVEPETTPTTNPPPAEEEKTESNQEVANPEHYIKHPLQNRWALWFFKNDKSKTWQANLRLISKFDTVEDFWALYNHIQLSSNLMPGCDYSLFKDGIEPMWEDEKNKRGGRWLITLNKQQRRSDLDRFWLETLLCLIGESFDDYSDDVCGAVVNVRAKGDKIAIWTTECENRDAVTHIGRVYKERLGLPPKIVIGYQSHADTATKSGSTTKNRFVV

Paired box protein Pax-8, sequence (Q06710 whole entry): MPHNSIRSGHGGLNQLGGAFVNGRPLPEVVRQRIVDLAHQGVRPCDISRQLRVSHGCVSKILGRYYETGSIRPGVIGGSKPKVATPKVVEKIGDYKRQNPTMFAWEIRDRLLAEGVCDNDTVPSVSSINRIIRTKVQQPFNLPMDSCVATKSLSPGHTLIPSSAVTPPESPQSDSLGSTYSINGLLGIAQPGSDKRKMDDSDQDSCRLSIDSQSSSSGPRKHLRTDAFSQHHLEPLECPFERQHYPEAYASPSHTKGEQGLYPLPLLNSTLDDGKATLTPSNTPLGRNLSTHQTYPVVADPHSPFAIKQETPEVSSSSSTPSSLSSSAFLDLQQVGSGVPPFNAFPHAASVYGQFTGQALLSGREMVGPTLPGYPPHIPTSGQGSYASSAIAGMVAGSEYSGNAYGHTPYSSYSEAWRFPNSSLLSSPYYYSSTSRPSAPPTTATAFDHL
Cytochrome P450 2C9, sequence (P11712 whole entry): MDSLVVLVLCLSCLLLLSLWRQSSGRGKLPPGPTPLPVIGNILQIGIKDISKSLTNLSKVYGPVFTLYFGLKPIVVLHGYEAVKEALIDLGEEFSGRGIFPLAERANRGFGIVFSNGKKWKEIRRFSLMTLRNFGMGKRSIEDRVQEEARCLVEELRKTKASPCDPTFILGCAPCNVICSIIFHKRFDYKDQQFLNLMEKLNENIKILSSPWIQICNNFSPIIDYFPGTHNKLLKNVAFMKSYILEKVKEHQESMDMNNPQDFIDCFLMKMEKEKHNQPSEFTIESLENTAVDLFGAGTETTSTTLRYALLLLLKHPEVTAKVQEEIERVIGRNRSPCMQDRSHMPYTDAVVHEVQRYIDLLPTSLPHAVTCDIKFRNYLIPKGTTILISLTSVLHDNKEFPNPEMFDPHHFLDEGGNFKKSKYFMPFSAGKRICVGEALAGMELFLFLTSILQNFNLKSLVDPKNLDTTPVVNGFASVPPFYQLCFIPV

For COc1ccc(-n2nc(C(=O)c3cccs3)cc(-c3nc4ccccc4[nH]3)c2=N)cc1, the IC50 (Prothrombin) was > 50 µM (not active), the EC50 [1] was 66.3 µM (active) and the EC50 [2] was 531 nM (active). The EC50 [3] was > 60 µM (not active), the EC50 [4] was 14.6 µM (active) and the EC50 (Streptococcus) was 10 µM (active). The EC50 [5] was 3.26 µM (active), the EC50 [6] was 53.8 µM (active) and the EC50 [7] was 11.2 µM (active).
For c1ccc2oc(CCc3nc4ccccc4o3)nc2c1, the EC50 [1] was > 300 µM (not active), the AC50 (HeLa) was 56.3 µM (active) and the EC50 [6] was > 300 µM (not active).
In the case of CCCSc1ccc(C(=O)Nc2ccc(F)cc2F)cn1, the AC50 (HeLa) is reported as 88.6 µM (active).
With CCN(CC)CCCN(Cc1cc2cc3c(cc2[nH]c1=O)OCO3)C(=S)Nc1ccccc1OC the IC50 (Prothrombin) was > 50 µM (not active).
In the case of Cc1ccc(-n2c(Cc3cccn3C)nnc2SCC(=O)NCc2ccco2)cc1, the IC50 [8] is reported as > 100 µM (not active).
For Cc1cc(O)c(C(=O)/C=C/c2ccc(Cl)cc2)c(=O)o1, the IC50 (Vero [9]) was > 25 µM (active) and the CC50 (Vero [10]) was 17.6 µM (active).
For CCOc1cccc2cc(C(=O)Nc3nccs3)c(=O)oc12, the IC50 [8] was > 100 µM (not active) and the IC50 (cells) was 1.31 µM (active).
For CC1=CC(C)(C)N2C(=O)C3(NCCc4c3[nH]c3ccccc43)c3cc(C)cc1c32 (centres undefined), the IC50 (Vero [9]) was 22.7 µM (active), the EC50 [11] was 12.2 µM (active) and the EC50 [12] was > 120 µM (not active). The CC50 (Vero [10]) was > 25 µM (active), the AC50 (Paired box protein Pax-8) was 7.27 µM (active) and the EC50 [13] was > 120 µM (not active).
In the case of COc1ccccc1CN(CC(=O)NCc1ccco1)C(=O)CNS(=O)(=O)c1ccc(C)cc1, the IC50 (Prothrombin) is reported as 7.63 µM (active).
With CCC(C)[C@H](NC(=O)NCC1CCCO1)C(=O)OC (some centres undefined) the IC50 [8] was > 100 µM (not active).
In the case of COc1ccc(/C=N/n2cnc3c4cc(Br)ccc4nc-3c2O)cc1CN1CCOCC1, the AC50 (Cytochrome P450 2C9) is reported as 3.55 µM (inconclusive) and the IC50 [14] is reported as > 64 µM (inactive).
